Measurements published in PubChem BioAssay (NCI).
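Where inhibition never reached the appropriate level, the endpoint shown equals the highest concentration tested. Otherwise, values were interpolated linearly from a five-concentration, 48-hour dose response in 96-well plates. GI50: concentration for 50% inhibition of growth. TGI: concentration producing complete growth inhibition.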

Assays:
Test in all cases: inhibition of tumour cell growth, NCI panel, 48 h
786-0 renal = tested on: 786-0 renal
A498 renal = tested on: A498 renal
A549 NSCLC = tested on: A549 NSCLC
ACHN renal = tested on: ACHN renal
BT-549 breast = tested on: BT-549 breast
CAKI-1 renal = tested on: CAKI-1 renal
CCRF-CEM leukemia = tested on: CCRF-CEM leukemia
COLO 205 colon = tested on: COLO 205 colon
DU-145 prostate = tested on: DU-145 prostate
EKVX NSCLC = tested on: EKVX NSCLC
HCC-2998 colon = tested on: HCC-2998 colon
HCT-116 colon = tested on: HCT-116 colon
HCT-15 colon = tested on: HCT-15 colon
HL-60(TB) leukemia = tested on: HL-60(TB) leukemia
HOP-62 NSCLC = tested on: HOP-62 NSCLC
HOP-92 NSCLC = tested on: HOP-92 NSCLC
HS 578T breast = tested on: HS 578T breast
HT29 colon = tested on: HT29 colon
IGROV1 ovarian = tested on: IGROV1 ovarian
K-562 leukemia = tested on: K-562 leukemia
KM12 colon = tested on: KM12 colon
LOX IMVI melanoma = tested on: LOX IMVI melanoma
M14 melanoma = tested on: M14 melanoma
MALME-3M melanoma = tested on: MALME-3M melanoma
MCF7 breast = tested on: MCF7 breast
MDA-MB-231 breast = tested on: MDA-MB-231 breast
MDA-MB-435 = tested on: MDA-MB-435
MOLT-4 leukemia = tested on: MOLT-4 leukemia
NCI-H226 lung = tested on: NCI-H226 lung

For `Oc1cc(N2CC2)c(O)cc1N1CC1`, the GI50 (786-0 renal) was 742 nM, the TGI (786-0 renal) was 4690 nM and the GI50 (A498 renal) was 581 nM. For the same compound, the TGI (A498 renal) was 2550 nM, the GI50 (A549 NSCLC) was 783 nM and the TGI (A549 NSCLC) was 10700 nM. The GI50 (ACHN renal) was 219 nM, the TGI (ACHN renal) was 590 nM and the GI50 (BT-549 breast) was 1840 nM. For the same compound, the TGI (BT-549 breast) was 5960 nM, the GI50 (CAKI-1 renal) was 86 nM and the TGI (CAKI-1 renal) was 332 nM. It also gave a GI50 (CCRF-CEM leukemia) of 556 nM, a TGI (CCRF-CEM leukemia) of over 45000 nM and a GI50 (COLO 205 colon) of 1020 nM. For the same compound, the TGI (COLO 205 colon) was 2210 nM, the GI50 (DU-145 prostate) was 254 nM and the TGI (DU-145 prostate) was 1370 nM. The GI50 (EKVX NSCLC) was 2620 nM, the TGI (EKVX NSCLC) was 9870 nM and the GI50 (HCC-2998 colon) was 1490 nM. For the same compound, the TGI (HCC-2998 colon) was 2980 nM, the GI50 (HCT-116 colon) was 615 nM and the TGI (HCT-116 colon) was 10800 nM. For the same compound, the GI50 (HCT-15 colon) was 727 nM, the TGI (HCT-15 colon) was 10400 nM and the GI50 (HL-60(TB) leukemia) was 238 nM. The TGI (HL-60(TB) leukemia) was 2140 nM, the GI50 (HOP-62 NSCLC) was 632 nM and the TGI (HOP-62 NSCLC) was 2990 nM. For the same compound, the GI50 (HOP-92 NSCLC) was 2330 nM, the TGI (HOP-92 NSCLC) was 7900 nM and the GI50 (HS 578T breast) was 2330 nM. For the same compound, the TGI (HS 578T breast) was over 22900 nM, the GI50 (HT29 colon) was 384 nM and the TGI (HT29 colon) was 6790 nM. The GI50 (IGROV1 ovarian) was 794 nM, the TGI (IGROV1 ovarian) was 3600 nM and the GI50 (K-562 leukemia) was 1200 nM. It also gave a TGI (K-562 leukemia) of 15400 nM, a GI50 (KM12 colon) of 1630 nM and a TGI (KM12 colon) of 4440 nM. The GI50 (LOX IMVI melanoma) was 322 nM, the TGI (LOX IMVI melanoma) was 2420 nM and the GI50 (M14 melanoma) was 511 nM. It also gave a TGI (M14 melanoma) of 1930 nM, a GI50 (MALME-3M melanoma) of 217 nM and a TGI (MALME-3M melanoma) of 550 nM. For the same compound, the GI50 (MCF7 breast) was 387 nM, the TGI (MCF7 breast) was 4210 nM and the GI50 (MDA-MB-231 breast) was 10300 nM. It also gave a TGI (MDA-MB-231 breast) of 64200 nM, a GI50 (MDA-MB-435) of 1370 nM and a TGI (MDA-MB-435) of 3320 nM. For the same compound, the GI50 (MOLT-4 leukemia) was 591 nM, the TGI (MOLT-4 leukemia) was 7890 nM and the GI50 (NCI-H226 lung) was 1630 nM. The TGI (NCI-H226 lung) was 4590 nM.
